This is an account of results in ChEMBL document CHEMBL1138820, “Synthesis and QSAR studies of pyrimido[4,5-d]pyrimidine-2,5-dione derivatives as potential antimicrobial agents” (2004).

≈ marks a conversion by molar mass, not a printed value.

Holding throughout (assay type): functional
The test system of assay [1] is Aspergillus niger. Kind of assay: Minimum inhibitory concentration required for antifungal activity against Aspergillus niger ATCC 16404.
The test system of assay [2] is Bacillus subtilis. Kind of assay: Minimum inhibitory concentration required for antibacterial activity against Bacillus subtilis ATCC 6633; gram positive.
The test system of assay [3] is Escherichia coli. Kind of assay: Minimum inhibitory concentration required for antibacterial activity against Escherichia coli ATCC 13607; gram negative.
Assay [4] can be described thus: Minimum inhibitory concentration required for antibacterial activity against Pseudomonas diminuta MTCC 3361; gram negative. The following applies: Brevundimonas diminuta.
Assay [5] deals with Staphylococcus aureus. Briefly: Minimum inhibitory concentration required for antibacterial activity against Staphylococcus aureus ATCC 2943; gram positive.
The subject of assay [6] is Candida albicans. Kind of assay: Minimum inhibitory concentration required for antifungal activity against Candida albicans ATCC 10321.

Regarding `O=C1Nc2[nH]c(=S)n(-c3cccc([N+](=O)[O-])c3)c(=O)c2C(c2ccccc2Cl)N1/N=N/c1ccc(Cl)cc1` (configuration not stated), the MIC in assay [1] worked out at 16 µg/mL (≈ 28.1 µM); in assay [2], 5 µg/mL (≈ 8.8 µM); in assay [3], 6 µg/mL (≈ 10.6 µM); in assay [4] it was 8 µg/mL (≈ 14.1 µM); in assay [5], 3 µg/mL (≈ 5.28 µM); in assay [6] it was 13 µg/mL (≈ 22.9 µM).

For `Cc1cccc(-n2c(=S)[nH]c3c(c2=O)C(c2ccccc2Cl)N(/N=N/c2ccc(Cl)cc2)C(=O)N3)c1` (configuration not stated), the MIC in assay [1] is 39 µg/mL (≈ 72.6 µM); in assay [2], 21 µg/mL (≈ 39.1 µM); in assay [3] it was 22 µg/mL (≈ 40.9 µM); in assay [4], 25 µg/mL (≈ 46.5 µM); in assay [5] it was 18 µg/mL (≈ 33.5 µM); in assay [6], 35 µg/mL (≈ 65.1 µM).

As to `O=C1Nc2[nH]c(=S)n(-c3ccc([N+](=O)[O-])cc3)c(=O)c2C(c2ccccc2Cl)N1/N=N/c1ccc(Cl)cc1` (configuration not stated), the MIC was found to be 19 µg/mL (≈ 33.4 µM) in assay [1]; 6 µg/mL (≈ 10.6 µM) in assay [2]; 7 µg/mL (≈ 12.3 µM) in assay [3]; 9 µg/mL (≈ 15.8 µM) in assay [4]; 4 µg/mL (≈ 7.04 µM) in assay [5]; 15 µg/mL (≈ 26.4 µM) in assay [6].

Consider `COc1ccc(-n2c(=S)[nH]c3c(c2=O)C(c2ccccc2Cl)N(/N=N/c2ccc(Cl)cc2)C(=O)N3)cc1` (configuration not stated), for which the MIC in assay [1] came to 33 µg/mL (≈ 59.6 µM); in assay [2] it was 16 µg/mL (≈ 28.9 µM); in assay [3], 17 µg/mL (≈ 30.7 µM); in assay [4] it was 21 µg/mL (≈ 37.9 µM); in assay [5] it was 11 µg/mL (≈ 19.9 µM); in assay [6], 29 µg/mL (≈ 52.4 µM).

As for `O=C1Nc2[nH]c(=S)n(-c3ccccc3)c(=O)c2C(c2ccccc2Cl)N1/N=N/c1ccc(Cl)cc1` (configuration not stated), the MIC in assay [1] amounted to 57 µg/mL (≈ 109 µM); in assay [2], 37 µg/mL (≈ 70.7 µM); in assay [3], 40 µg/mL (≈ 76.4 µM); in assay [4], 46 µg/mL (≈ 87.9 µM); in assay [5], 32 µg/mL (≈ 61.1 µM); in assay [6] it was 52 µg/mL (≈ 99.3 µM).

Regarding `CC1(C)S[C@@H]2[C@H](NC(=O)[C@H](N)c3ccccc3)C(=O)N2[C@H]1C(=O)O` [AMPICILLIN], the MIC in assay [2] was 10 µg/mL (≈ 28.6 µM); in assay [3] it was 49 µg/mL (≈ 140 µM); in assay [4], 15 µg/mL (≈ 42.9 µM); in assay [5] it was 50 µg/mL (≈ 143 µM).

As to `O=C1Nc2[nH]c(=S)n(-c3cccc(Cl)c3)c(=O)c2C(c2ccccc2Cl)N1/N=N/c1ccc(Cl)cc1` (configuration not stated), the MIC in assay [1] was 14 µg/mL (≈ 25.1 µM); in assay [2] it was 4 µg/mL (≈ 7.17 µM); in assay [3], 4 µg/mL (≈ 7.17 µM); in assay [4], 5 µg/mL (≈ 8.96 µM); in assay [5], 2 µg/mL (≈ 3.59 µM); in assay [6] it was 11 µg/mL (≈ 19.7 µM).

In the case of `Cc1ccc(-n2c(=S)[nH]c3c(c2=O)C(c2ccccc2Cl)N(/N=N/c2ccc(Cl)cc2)C(=O)N3)cc1` (configuration not stated), the MIC is 42 µg/mL (≈ 78.1 µM) in assay [1]; 22 µg/mL (≈ 40.9 µM) in assay [2]; 26 µg/mL (≈ 48.4 µM) in assay [3]; 31 µg/mL (≈ 57.7 µM) in assay [4]; 21 µg/mL (≈ 39.1 µM) in assay [5]; 39 µg/mL (≈ 72.6 µM) in assay [6].

Take `O=C(O)c1ccc(-n2c(=S)[nH]c3c(c2=O)C(c2ccccc2Cl)N(/N=N/c2ccc(Cl)cc2)C(=O)N3)cc1` (configuration not stated): the MIC in assay [1] amounted to 22 µg/mL (≈ 38.8 µM); in assay [2], 7 µg/mL (≈ 12.3 µM); in assay [3], 8 µg/mL (≈ 14.1 µM); in assay [4], 11 µg/mL (≈ 19.4 µM); in assay [5], 5 µg/mL (≈ 8.81 µM); in assay [6], 17 µg/mL (≈ 30 µM).

With `Clc1ccccc1C(c1ccccc1)(c1ccccc1)n1ccnc1` [CLOTRIMAZOLE], the MIC in assay [1] was determined as 20 µg/mL (≈ 58 µM); in assay [6], 25 µg/mL (≈ 72.5 µM).

Regarding `O=C1Nc2[nH]c(=S)n(-c3ccc(Cl)cc3)c(=O)c2C(c2ccccc2Cl)N1/N=N/c1ccc(Cl)cc1` (configuration not stated), the MIC in assay [1] is 29 µg/mL (≈ 52 µM); in assay [2] it was 12 µg/mL (≈ 21.5 µM); in assay [3], 13 µg/mL (≈ 23.3 µM); in assay [4], 14 µg/mL (≈ 25.1 µM); in assay [5], 9 µg/mL (≈ 16.1 µM); in assay [6], 24 µg/mL (≈ 43 µM).

Turning to `O=C1Nc2[nH]c(=S)n(-c3ccc(O)cc3)c(=O)c2C(c2ccccc2Cl)N1/N=N/c1ccc(Cl)cc1` (configuration not stated), the MIC came to 27 µg/mL (≈ 50.1 µM) in assay [1]; 10 µg/mL (≈ 18.5 µM) in assay [2]; 12 µg/mL (≈ 22.2 µM) in assay [3]; 15 µg/mL (≈ 27.8 µM) in assay [4]; 8 µg/mL (≈ 14.8 µM) in assay [5]; 23 µg/mL (≈ 42.6 µM) in assay [6].

Take `O=C1Nc2[nH]c(=S)n(-c3cccc(O)c3)c(=O)c2C(c2ccccc2Cl)N1/N=N/c1ccc(Cl)cc1` (configuration not stated): the MIC in assay [1] worked out at 24 µg/mL (≈ 44.5 µM); in assay [2] it was 8 µg/mL (≈ 14.8 µM); in assay [3], 10 µg/mL (≈ 18.5 µM); in assay [4], 13 µg/mL (≈ 24.1 µM); in assay [5], 6 µg/mL (≈ 11.1 µM); in assay [6], 20 µg/mL (≈ 37.1 µM).
